Assay results taken from PubChem BioAssay AID2060882 (Molecular Pharmacology Branch, DTP, NCI, 2025).
Blank lines part the entries; values can stand above or below the compound they belong to.

Test system: 898857-211-R-J1-PDC complex spheroids, growth % test/control
Assay: Anticancer human tumor 898857-211-R-J1-PDC patient-derived melanoma cell line growth inhibition [RAS]
Conditions: for viability, T/C: stronger effect = lower value
Summary of the method: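 Multi-cell-type spheroids: tumor cells plus HUVEC endothelial cells and mesenchymal stem cells. RAS-pathway inhibitors were combined with targeted agents, each dosed in half-log steps down from clinical Cmax, or from 10 microM when Cmax was unknown.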
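Further: spheroids exposed to compound for seven days before readout.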
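Wherever viability, T/C is given: 100% = DMSO vehicle control wells.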

IC50 (curve of first compound, second compound 0.0316 µM): 32.6 nM | IC50 (curve of first compound, second compound 0.1 µM): 38.2 nM | IC50 (curve of first compound, second compound 0.316 µM): 37.7 nM | IC50 (curve of first compound, second compound 1 µM): 37.3 nM | IC50 (curve of first compound, second compound 3.16 µM): 39.6 nM | IC50 (curve of first compound, second compound 10 µM): 1.06 nM
Structure (SMILES): CC(C)n1nc(-c2ccc3oc(N)nc3c2)c2c(N)ncnc21 + C#Cc1c(F)ccc2cc(O)cc(-c3ncc4c(N5CC6CCC(C5)N6)nc(OCC56CCCN5CC(F)C6)nc4c3F)c12
viability, T/C (second compound 0.0316 µM, first compound 0.000316 µM): 108% | viability, T/C (second compound 0.0316 µM, first compound 0.001 µM): 92.3% | viability, T/C (second compound 0.0316 µM, first compound 0.00316 µM): 101% | viability, T/C (second compound 0.0316 µM, first compound 0.01 µM): 81.8% | viability, T/C (second compound 0.0316 µM, first compound 0.0316 µM): 50.9% | viability, T/C (second compound 0.0316 µM, first compound 0.1 µM): 24% | viability, T/C (second compound 0.1 µM, first compound 0.000316 µM): 115% | viability, T/C (second compound 0.1 µM, first compound 0.001 µM): 99.8% | viability, T/C (second compound 0.1 µM, first compound 0.00316 µM): 100% | viability, T/C (second compound 0.1 µM, first compound 0.01 µM): 79.5% | viability, T/C (second compound 0.1 µM, first compound 0.0316 µM): 54.4% | viability, T/C (second compound 0.1 µM, first compound 0.1 µM): 24.5% | viability, T/C (second compound 0.316 µM, first compound 0.000316 µM): 112% | viability, T/C (second compound 0.316 µM, first compound 0.001 µM): 113% | viability, T/C (second compound 0.316 µM, first compound 0.00316 µM): 99.2% | viability, T/C (second compound 0.316 µM, first compound 0.01 µM): 78.9% | viability, T/C (second compound 0.316 µM, first compound 0.0316 µM): 55.6% | viability, T/C (second compound 0.316 µM, first compound 0.1 µM): 26.6% | viability, T/C (second compound 1 µM, first compound 0.000316 µM): 110% | viability, T/C (second compound 1 µM, first compound 0.001 µM): 103% | viability, T/C (second compound 1 µM, first compound 0.00316 µM): 107% | viability, T/C (second compound 1 µM, first compound 0.01 µM): 81.4% | viability, T/C (second compound 1 µM, first compound 0.0316 µM): 55.8% | viability, T/C (second compound 1 µM, first compound 0.1 µM): 23.5% | viability, T/C (second compound 3.16 µM, first compound 0.000316 µM): 122% | viability, T/C (second compound 3.16 µM, first compound 0.001 µM): 114% | viability, T/C (second compound 3.16 µM, first compound 0.00316 µM): 102% | viability, T/C (second compound 3.16 µM, first compound 0.01 µM): 84.4% | viability, T/C (second compound 3.16 µM, first compound 0.0316 µM): 55.8% | viability, T/C (second compound 3.16 µM, first compound 0.1 µM): 23.8% | viability, T/C (second compound 10 µM, first compound 0.000316 µM): 57.5% | viability, T/C (second compound 10 µM, first compound 0.001 µM): 47.7% | viability, T/C (second compound 10 µM, first compound 0.00316 µM): 46.7% | viability, T/C (second compound 10 µM, first compound 0.01 µM): 29.9% | viability, T/C (second compound 10 µM, first compound 0.0316 µM): 24.4% | viability, T/C (second compound 10 µM, first compound 0.1 µM): 10.4%

IC50 (curve of compound): 1.04 µM [middle of 4 runs]
Structure (SMILES): CCC(CC)c1cc(NC2CCC(N)C2)n2nccc2n1 (stereo not drawn)
viability, T/C (compound 0.0316 µM): 113% [middle of 4 runs] | viability, T/C (compound 0.1 µM): 99.5% [middle of 4 runs] | viability, T/C (compound 0.316 µM): 97.5% [middle of 4 runs] | viability, T/C (compound 3.16 µM): 1.39% [middle of 4 runs] | viability, T/C (compound 10 µM): 0.28% [middle of 4 runs]
